Source: patent US20200405657A1, “TREATMENT OF PAIN USING ALLOSTERIC MODULATOR OF TRPV1” (priority 2019, published 2020)
“Also recorded” adds a separate entry of the source. Blank lines part the entries; values can stand above or below the compound they belong to.

Legend:
Type in all cases: cell-based
TRPV1 = TRPV1 (Rattus norvegicus, UniProt O35433); experiment: TRPV1 desensitization over multiple sequential ligand applications (FIG. 13); settings: Area Under the Curve analysis, calcium assays or electrophysiology
Sequence of TRPV1 (O35433 whole entry): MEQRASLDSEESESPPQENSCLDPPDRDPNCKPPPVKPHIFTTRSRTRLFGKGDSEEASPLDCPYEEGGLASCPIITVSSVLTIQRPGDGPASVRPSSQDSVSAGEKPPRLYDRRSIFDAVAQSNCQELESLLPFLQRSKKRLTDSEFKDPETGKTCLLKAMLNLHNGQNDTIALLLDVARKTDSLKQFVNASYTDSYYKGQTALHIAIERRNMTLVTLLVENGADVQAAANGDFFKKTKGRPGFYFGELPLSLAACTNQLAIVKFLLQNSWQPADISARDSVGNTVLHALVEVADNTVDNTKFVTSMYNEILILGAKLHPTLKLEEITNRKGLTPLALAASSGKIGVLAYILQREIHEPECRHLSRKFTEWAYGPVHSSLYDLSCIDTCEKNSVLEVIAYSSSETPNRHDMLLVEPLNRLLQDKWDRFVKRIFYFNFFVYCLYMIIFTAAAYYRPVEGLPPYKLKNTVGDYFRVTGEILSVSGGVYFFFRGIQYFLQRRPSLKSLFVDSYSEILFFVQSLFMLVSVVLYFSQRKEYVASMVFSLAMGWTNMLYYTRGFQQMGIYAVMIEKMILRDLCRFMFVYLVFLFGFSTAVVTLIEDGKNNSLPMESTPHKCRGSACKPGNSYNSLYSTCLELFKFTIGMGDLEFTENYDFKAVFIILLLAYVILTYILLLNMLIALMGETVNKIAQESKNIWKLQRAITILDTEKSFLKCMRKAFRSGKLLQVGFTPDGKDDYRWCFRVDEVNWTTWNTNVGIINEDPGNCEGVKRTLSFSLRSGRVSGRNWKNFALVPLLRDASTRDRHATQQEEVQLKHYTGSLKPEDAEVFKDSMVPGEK

HEK wild type cells = experiment: Calcium flux (Fluo-4) in wild-type HEK cells without the TRPV1 construct; settings: for calcium response to individual cannabinoid: cells without TRPV1
Experimental: (§1) Calcium responses mediated by TRPV1 were tested by calcium assay in the cell culture system. Cells were washed and incubated with 0.2 μM fluo-4 acetoxymethyl ester (“Fluo-4”) for 30 minutes at 37° C. in a standard modified Ringer's solution of the following composition (in mM): NaCl 145, KCl 2.8, CsCl 10, CaCl2 10, MgCl2 2, glucose 10, Hepes.NaOH 10, pH 7.4, 330 mOsm. Cells were transferred to 96-well plates at 50,000 cells/well and stimulated as indicated. Calcium signals were acquired using a Flexstation 3 (Molecular Devices, Sunnydale, USA). Data was analyzed using SoftMax® Pro 5 (Molecular Devices). Where indicated, nominally calcium-free external conditions were achieved by the preparation of 0 mM CaCl2 Ringer solution containing 1 mM EGTA. Where indicated, capsaicin (10 μM) and ionomycin (500 nM) were used as positive controls to induce calcium responses. Capsazepine (10 μM) was used where indicated to specifically antagonize TRPV1-mediated calcium responses. Where indicated, baseline traces (no stimulation, NS) were subtracted. Where indicated, vehicle alone traces were subtracted. Where indicated, vehicle comprising various diluents matched to corresponding mixtures was used as a negative control.
When wild-type HEK cells without the TRPV1 construct were presented with the same stimulus conditions, calcium fluxes were not observed (FIGS. 5A-5C).

rat TRPV1 [1] = biological target: T1, rat TRPV1 (Rattus norvegicus, UniProt O35433); experiment: Whole-cell patch clamp in single HEK293 cells overexpressing rat TRPV1; settings: for inward current: average of 6 independent experiments; for outward current: 5 μM myrcene or 1 μM capsaicin
T1 construct: FLAG; expressed in transfected cells; host or cells: TRex HEK293 (pcDNA6TR), rat TRPV1 cDNA in pcDNA4TO, tetracycline-induced
T1 sequence (O35433 whole entry): as above
Experimental: HEK293 cells were kept in sodium-based extracellular Ringer's solution containing 140 mM NaCl, 1 mM CaCl2, 2 mM MgCl2, 2.8 mM KCl, 11 mM glucose, and 10 mM HEPES-NaOH, pH 7.2 and osmolarity 300 mOsmol. The cells' cytosol was perfused with intracellular patch pipette solution containing 140 mM Cs-glutamate, 8 mM NaCl, 1 mM MgCl2, 3 mM MgATP, and 10 mM HEPES-CsOH. The standard internal Ca^2+ concentration was buffered to 180 nM with 4 mM Ca and 10 mM BAPTA. The level of free unbuffered Ca was adjusted using the calculator provided with WebMaxC (http://www.stanford.edu/˜cpatton/webmaxcS.htm). The pH of the final solution was adjusted to pH 7.2 and osmolarity measured at 300 mOsmol.
1 μM capsaicin was used as a positive control for TRPV1 activation. Rapid extracellular solution application and exchange was performed with the SmartSquirt delivery system (Auto-Mate Scientific, San Francisco). The system includes a ValveLink TTL interface between the electronic valves and the EPC-9 amplifier (HEKA, Lambrecht, Germany). This configuration allows for programmable solution changes via the PatchMaster software (HEKA, Lambrecht, Germany).
Patch-clamp experiments were performed in the whole-cell configuration at 21-25° C. Patch pipettes had resistances of 2-3 MΩ. Data was acquired with PatchMaster software controlling an EPC-9 amplifier. Voltage ramps of 50 ms spanning the voltage range from −100 to 100 mV were delivered from a holding potential of 0 mV at a rate of 0.5 Hz over a period of […]. Voltages were corrected for a liquid junction potential of 10 mV. Currents were filtered at 2.9 kHz and digitized at 100 us intervals. Capacitive currents were determined and corrected before each voltage ramp. The development of currents for a given potential was extracted from individual ramp current records by measuring the current amplitudes at voltages of −80 mV and +80 mV. Data were analyzed with FitMaster (HEKA, Lambrecht, Germany), and IgorPro (WaveMetrics, Lake Oswego, Oreg., USA). Where applicable, statistical errors of averaged data are given as mean±s.e.m.

rat TRPV1 [2] = biological target: T1, rat TRPV1; experiment: TRPV1-mediated calcium influx (Fluo-4) in HEK cells inducibly expressing TRPV1; settings: for calcium influx in response to individual terpene / calcium flux in response to individual cannabinoid: HEK+TRPV1 cells; for calcium influx in response to individual terpene: each terpene applied alone; for calcium flux in response to individual cannabinoid: each cannabinoid applied alone
Experimental: The HEK293 cell line was stably transfected with the pcDNA6TR (Invitrogen, CA) plasmid (encoding the tetracycline-sensitive TREx repressor protein), and was maintained in DMEM+10% fetal bovine serum (inactivated at 55° C. for 1 h)+2 mM glutamine in humidified 5% CO2 atmosphere at 37° C. Selection pressure on the TRex 293 cells was maintained by continuous culture in 10 μg/ml Blasticidin (Sigma, St Louis, Mo.).
For production of TRex HEK293 cells with inducible expression of TRPV1, parental cells were electroporated with the rat TRPV1 cDNA in the pcDNA4TO vector and clonal cell lines were selected by limiting dilution in the presence of 400 μg/ml zeocin (Invitrogen, CA). TRPV1 expression was induced using 1 μg/ml tetracycline for 16 h at 37° C.
as §1

current induced (rat TRPV1 [1]; 1 μM capsaicin): 4-10 nA
inward current (rat TRPV1 [1]; 1 μM capsaicin after myrcene): approximately 9 nA
outward current (rat TRPV1 [1]): lower amplitude than the inward current
TRPV1 channel state on activation (IV relationship) (rat TRPV1 [1]; 5 μM myrcene, 1 μM capsaicin): dilated state
capsaicin-specific calcium flux (rat TRPV1 [2]; TRPV1-induced HEK cells): capsaicin-specific calcium fluxes
SMILES: COc1cc(CNC(=O)CCCC/C=C/C(C)C)ccc1O [capsaicin, reference compound]
desensitization of the channel (TRPV1): can cause desensitization
capsaicin calcium flux (HEK wild type cells; HEK wild type cells without a construct encoding TRPV1): not detected

calcium influx in response to individual terpene (rat TRPV1 [2]): not observed
SMILES: CC(C)=CCC[C@](C)(O)[C@@H]1CC=C(C)CC1 [Bisabolol, 6-methyl-2-(4-methylcyclohex-3-en-1-yl)hept-5-en-2-ol]

SMILES: C=C(C)[C@@H]1CCC(C)=C[C@H]1c1c(O)cc(CCC)cc1O [cannabidivarin, Cannabidivarin]
calcium response to individual cannabinoid (HEK wild type cells): only minimal or absent
calcium flux in response to individual cannabinoid (rat TRPV1 [2]): most potent; also recorded: calcium flux was detected

calcium influx in response to individual terpene (rat TRPV1 [2]): not observed
SMILES: C=CC(C)(O)CCC=C(C)C (stereo not drawn) [Linalool, 3,7-dimethyl-1,6-octadien-3-ol]

SMILES: C=CC(=C)CCC=C(C)C [Myrcene, 7-methyl-3-methylideneocta-1,6-diene]
desensitization of the channel (TRPV1): cause desensitization
calcium influx, calcium-free medium (HEK wild type cells; wild-type HEK cells without TRPV1, myrcene 0.43-3.5 μg/ml): not observed or were only minimal
calcium flux in response to myrcene (HEK wild type cells; wild-type HEK cells, 3.5-0.43 μg/ml, compared with HEK+TRPV1): much smaller
outward current (rat TRPV1 [1]): lower amplitude than the inward current
TRPV1 channel state on activation (IV relationship) (rat TRPV1 [1]; 5 μM myrcene, 1 μM capsaicin): primarily in State 1
inward current (rat TRPV1 [1]; 5 μM myrcene, 1 mM Ca): approximately 0.5 nA
current induced (rat TRPV1 [1]; 5 μM, 10 μM and 150 μM myrcene): 0.5-2.2 nA
dose response of current in individual cells (rat TRPV1 [1]; 5, 10, 150 μM): dose-dependent response
response to second stimulus Cannabidiol after prior Myrcene saturation (rat TRPV1 [1]; Myrcene at 0 mM external Ca2+, then Cannabidiol at 1 mM external Ca2+, versus no prior Myrcene): suppressed
activator strength at TRPV1 (rat TRPV1 [1]; producing nA currents): strong activator of TRPV1
calcium-mediated fluorescence, calcium-free medium, high concentration (rat TRPV1 [2]; 0 mM external calcium + 1 mM EGTA, 3.5 μg/ml): induced such increase
calcium-mediated fluorescence, calcium-free medium, low concentrations (rat TRPV1 [2]; 0 mM external calcium + 1 mM EGTA, 0.43, 0.875 and 1.75 μg/ml): did not cause increase
calcium response to different concentrations of myrcene (rat TRPV1 [2]; 3.5, 1.75, 0.875 and 0.43 μg/ml): dose-dependent
calcium influx in response to individual terpene (rat TRPV1 [2]): significant agonist activity
calcium influx in response to individual terpene (rat TRPV1 [2]; listed as myrcene): significant calcium flux was detected; also recorded: did not account for 100% of the calcium influx signal

SMILES: CCCCCc1cc(O)c2c(c1)OC(C)(CCC=C(C)C)C=C2 (stereo not drawn) [cannabichromene, Cannabichromene]
calcium response to individual cannabinoid (HEK wild type cells): only minimal or absent
calcium flux in response to individual cannabinoid (rat TRPV1 [2]): most potent; also recorded: calcium flux was detected

SMILES: CCCCCc1cc(O)c(C/C=C(\C)CCC=C(C)C)c(O)c1C(=O)O [cannabigerolic acid, Cannabigerolic Acid]
calcium response to individual cannabinoid (HEK wild type cells): only minimal or absent
calcium flux in response to individual cannabinoid (rat TRPV1 [2]): most potent; also recorded: calcium flux was detected

SMILES: C=C(C)[C@@H]1CCC(C)=C[C@H]1c1c(O)cc(CCCCC)c(C(=O)O)c1O [cannabidiolic acid, Cannabidiolic Acid]
calcium response to individual cannabinoid (HEK wild type cells): only minimal or absent
calcium flux in response to individual cannabinoid (rat TRPV1 [2]): most potent; also recorded: calcium flux was detected

SMILES: C=C(C)[C@@H]1CCC(C)=C[C@H]1c1c(O)cc(CCCCC)cc1O [Cannabidiol]
desensitization of the channel (TRPV1): cause desensitization
calcium response to individual cannabinoid (HEK wild type cells): only minimal or absent
Imax of activated current (rat TRPV1 [1]; 30 μM CBD): up to 5 nA
Erev of rectifying current (rat TRPV1 [1]; CBD): ~0 mV
sensitivity of CBD-induced current (rat TRPV1 [1]; capsazepine application, washout of CBD): sensitive to both capsazepine and washout
calcium flux in response to individual cannabinoid (rat TRPV1 [2]): most potent; also recorded: calcium flux was detected

myrcene-induced calcium flux in response to TRPV1 inhibitor (rat TRPV1 [2]; cells activated with 3.5 μg/ml myrcene, 10 μM capsazepine): diminished
SMILES: Oc1cc2c(cc1O)CN(C(=S)NCCc1ccc(Cl)cc1)CCC2 [capsazepine, reference compound]

calcium influx in response to individual terpene (rat TRPV1 [2]; listed as nerolidol): significant calcium flux was detected
SMILES: C=CC(C)(O)CCC=C(C)CCC=C(C)C (stereo not drawn) [Nerolidol, 3,7,11-Trimethyl-1,6,10-dodecatrien-3-ol]
calcium influx in response to individual terpene (rat TRPV1 [2]): more modest agonist activity; also recorded: activated TRPV1-mediated Ca^2+ influx

SMILES: C=C/C(C)=C/CC=C(C)C [Ocimene]
calcium influx in response to individual terpene (rat TRPV1 [2]): not observed
